Assay results taken from patent publication US8119669B2, “Substituted phenoxy N-alkylated thiazolidinediones as estrogen related receptor-α modulators” (Janssen Pharmaceutica N.V., priority 2007, dated 2012).

Target: T1, ERR1 (also known as ERR-α or ERR-1) (Homo sapiens, UniProt P11474)
T1 sequence (P11474 193-421 limits assumed): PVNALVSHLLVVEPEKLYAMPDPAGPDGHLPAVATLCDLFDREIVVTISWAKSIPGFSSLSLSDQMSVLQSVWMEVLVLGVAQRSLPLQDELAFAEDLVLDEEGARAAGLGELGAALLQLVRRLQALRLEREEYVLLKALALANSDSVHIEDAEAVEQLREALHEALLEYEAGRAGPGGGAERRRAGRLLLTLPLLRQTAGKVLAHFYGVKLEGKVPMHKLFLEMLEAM
Experiment: TR-FRET Assay (disruption of co-activator peptide binding to ERR1 LBD)
Format: biochemical
Conditions: 6His-tagged ERR1 LBD 6 nM, GST-hSRC2 co-activator peptide 6 nM; 25° C., 4-18 hours; average of 3 independent experiments
Description: Time-Resolved Fluorescence Resonance Energy Transfer (TR-FRET) experiments were performed to examine the functional response of ERR1 (also known as ERR-α or ERR-1) ligands. The TR-FRET assay described herein relied on the conformation of ERR1 for binding to a co-activator peptide: when a test compound binds to ERR1 and alters its conformation, it can disrupt the binding of the co-activator peptide. The components of this homogeneous secondary assay included: the ^6His-tagged-ERR1LBD, a GST-labeled-hSRC2 co-activator polypeptide and a fluorescent donor/acceptor pair from CIS bio international htrf/bioassays (Bedford, Mass.) using both an α-GST Europium Cryptate (Eu) label and an α^6His-XL665 (allophycocyanin) fluorophore.
For TR-FRET measurements, the reaction was buffered in 25 mM Tris pH 8, 2.5 mM Hepes, 20 mM KCl, 1 mM DTT, and 0.05 mg/mL BSA (-lipids). The final concentrations of reagents were 6 nM of ERR1LBD, 6 nM GST-SRC-2 peptide, 30 nM Eu cryptate, and 7.5 nM XL665. Reactions were allowed to reach equilibrium at 25° C. for 4-18 hours before collecting data on the Analyst from LJL Biosystems (Molecular Devices Sunnyvale, Calif.). As a time-resolved method, the samples were excited at […] and emission was collected for 1 ms at both 615 and 665 nm with delays of 400 and 75 μs, respectively. Dose response curves were fitted using a hyperbolic equation and the data reported is the average of 3 independent experiments.

SMILES | EC50 [nM]
COc1cc(/C=C2\SC(=O)N(CCN3CCOCC3)C2=O)ccc1Oc1ccc(C#N)cc1C(F)(F)F [Compound 1, 4-{2-Methoxy-4-[3-(2-morpholin-4-yl-ethyl)-2,4-dioxo-thiazolidin-5-ylidenemethyl]-phenoxy}-3-trifluoromethyl-benzonitrile] | 20
COc1cc(/C=C2\SC(=O)N(CCN(C)C)C2=O)ccc1Oc1ccc(C#N)cc1C(F)(F)F [Compound 2, 4-{4-[3-(2-Dimethylamino-ethyl)-2,4-dioxo-thiazolidin-5-ylidenemethyl]-2-methoxy-phenoxy}-3-trifluoromethyl-benzonitrile] | 39
COc1cc(/C=C2\SC(=O)N(CCN3CCCC3)C2=O)ccc1Oc1ccc(C#N)cc1C(F)(F)F [Compound 3, 4-{4-[2,4-Dioxo-3-(2-pyrrolidin-1-yl-ethyl)-thiazolidin-5-ylidenemethyl]-2-methoxy-phenoxy}-3-trifluoromethyl-benzonitrile] | 42
COc1cc(/C=C2\SC(=O)N(CCN3CCN(C)CC3)C2=O)ccc1Oc1ccc(C#N)cc1C(F)(F)F [Compound 4, 4-(2-Methoxy-4-{3-[2-(4-methyl-piperazin-1-yl)-ethyl]-2,4-dioxo-thiazolidin-5-ylidenemethyl}-phenoxy)-3-trifluoromethyl-benzonitrile] | 320
CN(C)CCN1C(=O)S/C(=C\c2ccc(Oc3ccc(C#N)cc3C(F)(F)F)c(F)c2)C1=O [Compound 5, 4-{4-[3-(2-Dimethylamino-ethyl)-2,4-dioxo-thiazolidin-5-ylidenemethyl]-2-fluoro-phenoxy}-3-trifluoromethyl-benzonitrile] | 360
N#Cc1ccc(Oc2ccc(/C=C3\SC(=O)N(CCN4CCOCC4)C3=O)cc2F)c(C(F)(F)F)c1 [Compound 6, 4-{2-Fluoro-4-[3-(2-morpholin-4-yl-ethyl)-2,4-dioxo-thiazolidin-5-ylidenemethyl]-phenoxy}-3-trifluoromethyl-benzonitrile] | 320
CCN(CC)CCN1C(=O)S/C(=C\c2ccc(Oc3ccc(C#N)cc3C(F)(F)F)c(OC)c2)C1=O [Compound 7, 4-{4-[3-(2-Diethylamino-ethyl)-2,4-dioxo-thiazolidin-5-ylidenemethyl]-2-methoxy-phenoxy}-3-trifluoromethyl-benzonitrile] | 59
COc1cc(/C=C2\SC(=O)N(CCn3ccnc3)C2=O)ccc1Oc1ccc(C#N)cc1C(F)(F)F [Compound 8, 4-{4-[3-(2-Imidazol-1-yl-ethyl)-2,4-dioxo-thiazolidin-5-ylidenemethyl]-2-methoxy-phenoxy}-3-trifluoromethyl-benzonitrile] | 32
COc1cc(/C=C2\SC(=O)N(CCN3CCCCC3)C2=O)ccc1Oc1ccc(C#N)cc1C(F)(F)F [Compound 9, 4-{4-[2,4-Dioxo-3-(2-piperidin-1-yl-ethyl)-thiazolidin-5-ylidenemethyl]-2-methoxy-phenoxy}-3-trifluoromethyl-benzonitrile] | 33
COc1cc(/C=C2\SC(=O)N(CCn3cccn3)C2=O)ccc1Oc1ccc(C#N)cc1C(F)(F)F [Compound 10, 4-{4-[2,4-Dioxo-3-(2-pyrazol-1-yl-ethyl)-thiazolidin-5-ylidenemethyl]-2-methoxy-phenoxy}-3-trifluoromethyl-benzonitrile] | 59
COc1cc(/C=C2\SC(=O)N(CCn3cncn3)C2=O)ccc1Oc1ccc(C#N)cc1C(F)(F)F [Compound 11, 4-{4-[2,4-Dioxo-3-(2-[1,2,4]triazol-1-yl-ethyl)-thiazolidin-5-ylidenemethyl]-2-methoxy-phenoxy}-3-trifluoromethyl-benzonitrile] | 24
COc1cc(/C=C2\SC(=O)N(CCN3CCCCCC3)C2=O)ccc1Oc1ccc(C#N)cc1C(F)(F)F [Compound 12, 4-{4-[3-(2-Azepan-1-yl-ethyl)-2,4-dioxo-thiazolidin-5-ylidenemethyl]-2-methoxy-phenoxy}-3-trifluoromethyl-benzonitrile] | 44
COc1cc(/C=C2\SC(=O)N(CCn3cccc3)C2=O)ccc1Oc1ccc(C#N)cc1C(F)(F)F [Compound 13, 4-{4-[2,4-Dioxo-3-(2-pyrrol-1-yl-ethyl)-thiazolidin-5-ylidenemethyl]-2-methoxy-phenoxy}-3-trifluoromethyl-benzonitrile] | 86
N#Cc1ccc(Oc2ccc(/C=C3\SC(=O)N(CCN4CCCC4)C3=O)cc2F)c(C(F)(F)F)c1 [Compound 14, 4-{4-[2,4-Dioxo-3-(2-pyrrolidin-1-yl-ethyl)-thiazolidin-5-ylidenemethyl]-2-fluoro-phenoxy}-3-trifluoromethyl-benzonitrile] | 230
